In data set [1] the target is Sushi domains (SD1/2) protein. Nature of the data set: Fluorescence polarization (FP) competition assay with AJAP-1probe, calculated Ki. The data set is classed as binding. In outline: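 Ki values were derived from IC50s (sigmoidal fits, ≥ triplicate), with probe Kd obtained by saturation titration of SD1/2. Peptides displaced a 25 nM TAMRA-labelled probe; polarization read at 530/580 nm in 1% BSA-containing PBS, pH 7.4, room temperature.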

Data set [2] has as its target SD1/2. The data set is described as follows: Solution array of crude APPWT variants, six-point FP inhibition curve. The data set is classed as binding. Particulars: crude peptides of the solution array. The method, then:
Parallel synthesis in 96 format peptide synthesis was done using Intavis multipep RSi instrument. Fmoc-PAL resins was used (10 mg per well). Fmoc-amino acids (Fmoc-AA) were dissolved in dimethylformamide (DMF) containing 0.3 M OxymaPure. Throughout the synthesis Fmoc-AA were preactivated with diisopropylcarbodiimide (DIC) for 2 min before adding to the resin. Three couplings using 100 μL Fmoc-AA and 10 μL DIC (3 M in DMF) pr well were employed with coupling times of 5, 15 and 60 min. Removal of Fmoc was performed by washing twice with 120 μl per well of 25% piperidine in DMF for 2 and 8 min. Washing steps after deprotection with piperidine and after coupling steps included washing with DMF (150 μL per well) five times. After synthesis the resins were dried with ethanol and trifluoroacetic acid (TFA) was added using 92% TFA containing 4% triisopropylsilane (TIPS), 1% thioanisol, and 3% H2O for 2 hours. This was done by adding 100 μL per well of the TFA cleavage cocktail over a period of 30 min adding up to a total volume of 1 mL to each well. TFA was then reduced in volume to approximately 100-150 μL by N2 flow and peptides were precipitated by the addition 800 μL of diethylether to each well. The peptides were transferred to Waters solvinert plates and washed thoroughly five times with diethylether 500 μL per well. After washing, the peptides were dried and then dissolved in 80% DMSO. Characterization was performed by UPLC-MS on a setup consisting of a Waters Acquity UPLC system connected to an LCT Premier XE mass spectrometer from Micromass using solvent A 0.1% TFA in H2O and solvent B 0.1% TFA in CH3CN.
We synthesized additional positional scanning array (termed solution array) of APPWT using the conventional on-resin SPPS strategy in 96-well plates. This solution array contained 268 peptides (including two wild type peptides). […] Taking advantage of the high purity of this peptide array, we generated six-point FP inhibition curve of each peptide and the obtained dose response curves enabled us to calculate the binding affinity (Ki) of each peptide variant (data not shown).

Data set [3] is described as follows: In vitro plasma stability. Conditions: for half-life / remaining at 48 h, 100 µM: human; for half-life: plasma.
Method: For time-course assay, 360 μL human plasma was pre-warmed up at 37° C. for 15 min and then spiked with 40 μL of tested peptides (1 mM in 1×PBS). […] Subsequently, 100 μL acetonitrile was added into and then samples were incubated overnight at −20° C. After that, all samples were centrifuged at 13,400 rpm for 10 min and the supernatant was filtered and then analyzed by LC-MS and UPLC (Waters). The area under the curve (AUC) was determined and normalized to the value of the first time point. The half-life (T1/2) was obtained by fitting the data to the one-phase decay equation in GraphPad Prism 9 and expressed as the mean of three individual experiments. For end-point assay, 108 μL human plasma was pre-warmed up at 37° C. for 15 min and then spiked with 12 μL of tested peptides (1 mM in 1×PBS).
The mark [4] stands for this setting: purified peptides, read-out: Ki.
Where [5] appears, read: CPP tagged peptides overview, SD1/2 binding affinity, mean ± SEM, n ≥ 3, read-out: Ki.
[6] abbreviates: Table 14, CPPs tagged peptides, read-out: Ki (nM) mean ± SEM.

The structures appear in SMILES notation. Where two headings read alike, the source gives them in different places. Non-standard residues stand in square brackets, D forms with d. Residues, ends and D or L forms follow the SMILES beside them. 2Nal = N[C@@H](Cc1ccc2ccccc2c1)C(=O)O Where only a bound is given, the exact number is not on record here.

The source of these data is patent publication US20260193293A1, “PEPTIDES CAPABLE OF INHIBITING PROTEIN-PROTEIN INTERACTIONS AT GABAB1A SUBUNIT AND USES THEREOF” (UNIVERSITY OF COPENHAGEN, priority 2022, published 2026).

The Ki is a dissociation constant, usually derived from enzyme kinetics or from competition with a known ligand. `CC(=O)N[C@@H](CCC(=O)O)C(=O)N[C@@H](CC(=O)O)C(=O)N[C@@H](CC(=O)O)C(=O)N[C@@H](CO)C(=O)N[C@@H](CC(=O)O)C(=O)N[C@H](C(=O)N[C@@H](Cc1c[nH]c2ccccc12)C(=O)N[C@@H](Cc1c[nH]c2ccccc12)C(=O)N[C@@H](Cc1ccc(O)cc1)C(=O)NCC(=O)N[C@@H](C)C(=O)N[C@@H](CC(=O)O)C(=O)N[C@H](C(=O)N[C@@H](CC(=O)O)C(N)=O)[C@@H](C)O)C(C)C` (Ac-EDDSDVWWYGADTD-NH2): the Ki in data set [1] (Table 10, deep mutational scanning validation variants of APPWT, read-out: Ki (nM) mean ± SEM) was 108 ± 1 nM; in data set [2], 167 nM.
Turning to `CC(=O)N[C@@H](CCC(=O)O)C(=O)N[C@@H](CC(=O)O)C(=O)N[C@@H](CC(=O)O)C(=O)N[C@@H](CO)C(=O)N[C@@H](Cc1c[nH]c2ccccc12)C(=O)N[C@H](C(=O)N[C@@H](Cc1c[nH]c2ccccc12)C(=O)N[C@@H](Cc1c[nH]c2ccccc12)C(=O)NCC(=O)NCC(=O)N[C@@H](C)C(=O)N[C@@H](CC(=O)O)C(=O)N[C@H](C(=O)N[C@@H](CC(=O)O)C(N)=O)[C@@H](C)O)C(C)C` (Ac-EDDSWVWWGGADTD-NH2), the Ki is 100 nM in data set [1] (setting [4]) and 78 nM in data set [2].
Usually half-life stands for the time needed for the level to fall by half in the phase considered. Read a low half-life as fast loss. With `CC(=O)N[C@@H](CCC(=O)O)C(=O)N[C@@H](CC(=O)O)C(=O)N[C@@H](CC(=O)O)C(=O)N[C@@H](CO)C(=O)N[C@@H](CC(=O)O)C(=O)N[C@H](C(=O)N[C@@H](Cc1c[nH]c2ccccc12)C(=O)N[C@@H](Cc1c[nH]c2ccccc12)C(=O)NCC(=O)NCC(=O)N[C@@H](C)C(=O)N[C@@H](CC(=O)O)C(=O)N[C@H](C(=O)N[C@@H](CC(=O)O)C(N)=O)[C@@H](C)O)C(C)C` [APPWT] (Ac-EDDSDVWWGGADTD-NH2), the half-life in data set [3] is over 48 h. For the same compound, the Ki in data set [1] (Table 1, affinity maturation, mean ± SEM, n ≥ 3, read-out: Ki) was 557 ± 9 nM; in data set [1] (setting [4]), 557 ± 9 nM; in data set [2], 635 nM.
Consider `CC[C@H](C)[C@H](NC(=O)[C@H](Cc1ccc2ccccc2c1)NC(=O)[C@H](CC(=O)O)NC(=O)[C@H](CC(=O)O)NC(=O)[C@H](CC(=O)O)NC(=O)[C@H](CCC(=O)O)NC(=O)[C@H](CCCNC(=N)N)NC(=O)[C@H](CCCNC(=N)N)NC(=O)[C@H](CCCNC(=N)N)NC(=O)[C@H](CCCNC(=N)N)NC(C)=O)C(=O)N[C@@H](CC(=O)O)C(=O)N[C@@H](Cc1c[nH]c2ccccc12)C(=O)NCC(=O)N1CCC[C@H]1C(=O)N[C@H](C(=O)N[C@@H](CO)C(=O)N[C@@H](CC(=O)O)C(=O)N[C@@H](CC(=O)O)C(=O)N[C@@H](CC(=O)O)C(N)=O)[C@@H](C)O` [Peptide R4-21] (Ac-RRRREDDD[2Nal]IDWGPTSDDD-NH2), for which the “T1/2” value in data set [3] (human plasma, 37° C.) is on record as over 48 h. In addition, in data set [3], the half-life is over 48 h. Moreover, the Ki in data set [1] (setting [5]) and in data set [1] (setting [6]) was 13 ± 1 nM each time.
The fraction remaining is what is left of the initial amount, in per cent. Low readings indicate more turnover, high ones less turnover. In the case of `CC[C@H](C)[C@H](NC(=O)[C@H](Cc1c[nH]c2ccccc12)NC(=O)[C@H](CC(=O)O)NC(=O)[C@H](CC(=O)O)NC(=O)[C@H](CC(=O)O)NC(=O)[C@H](CCC(=O)O)NC(=O)[C@H](CCCNC(=N)N)NC(=O)[C@H](CCCNC(=N)N)NC(=O)[C@H](CCCNC(=N)N)NC(=O)[C@H](CCCNC(=N)N)NC(=O)[C@H](CCCNC(=N)N)NC(=O)[C@H](CCCNC(=N)N)NC(=O)[C@H](CCCNC(=N)N)NC(=O)[C@H](CCCNC(=N)N)NC(C)=O)C(=O)N[C@@H](CC(=O)O)C(=O)N[C@@H](Cc1c[nH]c2ccccc12)C(=O)N[C@@H](Cc1ccc(O)cc1)C(=O)N[C@@H](CC(=O)O)C(=O)N[C@@H](CO)C(=O)N[C@@H](CC(=O)O)C(=O)N[C@@H](CC(=O)O)C(=O)N[C@@H](CC(=O)O)C(N)=O` [Peptide R8-16] (Ac-RRRRRRRREDDDWIDWYDSDDD-NH2), the amount remaining at 48 h, 100 µM in data set [3] (human plasma) is about 50%. Also, in data set [3], the half-life is over 48 h. The Ki is 107 ± 1 nM in data set [1] (setting [5]) and 107 ± 2 nM in data set [1] (setting [6]).
As for `CC[C@H](C)[C@H](NC(=O)[C@H](Cc1c[nH]c2ccccc12)NC(=O)[C@H](CC(=O)O)NC(=O)[C@H](CC(=O)O)NC(=O)[C@H](CC(=O)O)NC(=O)[C@H](CCC(=O)O)NC(=O)[C@H](CCCNC(=N)N)NC(=O)[C@H](CCCNC(=N)N)NC(=O)[C@H](CCCNC(=N)N)NC(=O)[C@H](CCCNC(=N)N)NC(=O)[C@H](CCCNC(=N)N)NC(=O)[C@H](CCCNC(=N)N)NC(=O)[C@H](CCCNC(=N)N)NC(=O)[C@H](CCCNC(=N)N)NC(C)=O)C(=O)N[C@@H](CC(=O)O)C(=O)N[C@@H](Cc1c[nH]c2ccccc12)C(=O)NCC(=O)N1CCC[C@H]1C(=O)N[C@H](C(=O)N[C@@H](CO)C(=O)N[C@@H](CC(=O)O)C(=O)N[C@@H](CC(=O)O)C(=O)N[C@@H](CC(=O)O)C(N)=O)[C@@H](C)O` [Peptide R8-17] (Ac-RRRRRRRREDDDWIDWGPTSDDD-NH2), the fraction remaining at 48 h, 100 µM in data set [3] (human plasma) was about 50%. In addition, in data set [3], the half-life was over 48 h. Also, the Ki in data set [1] (setting [5]) is 58 ± 3 nM; in data set [1] (setting [6]), 58.1 ± 3 nM.
